The structures appear in SMILES notation. Where “and” joins values, the source holds several entries; their conditions need not be identical. Equal entries are not always repeated. Some results are limits rather than exact numbers.

In general, mortality refers to the percentage killed.

Type in all cases: in vivo
Data set [1] deals with Haemaphysalis longicornis. The experiment in a line: Controlling effects against Haemaphysalis longicornis, knockdown of larval ticks in treated petri dish. The conditions noted are these: 1 ml acetone solution 10 μg/ml on petri dish, 25° C., operation repeated twice (two values). The procedure:
Test on Controlling Effects Against Haemaphysalis longicornis
On an inner surface of a petri dish having diameter of 9 cm, 1 ml of an acetone solution of a sample compound (concentration: 10 μg/ml) was dropwise applied by a micropipette. On the other hand, as a control section, 1 ml of acetone was dropwise applied in the same manner. The inner surface of the petri dish was dried, and then about 100 larval ticks were put, and the petri dish was covered with a polyethylene sheet and sealed with an elastic band. Thereafter, except for the observation time, the petri dish was left to stand at a constant temperature of 25° C. under a relative humidity of 100% and under a constantly dark condition. The observation was carried out every time after putting the larval ticks in the petri dish (after 5 minutes, 10 minutes, 15 minutes, 20 minutes, 30 minutes, 45 minutes, 1 hour, 2 hours, 4 hours, 6 hours and 24 hours). The number of knockdown ticks after the contact with the insecticidal compound was recorded. The foregoing operation was repeated twice.
The knockdown rate at each observation time was corrected by the following abbott correction formula. Then, a probit-time linear line was drawn, and the median knockdown time (KT50 value) was obtained. With respect to the KT50 values of the respective sample compounds, they were 9 minutes and 8 minutes with the above-mentioned compound No. 3, and 7.5 minutes and 6 minutes with the above-mentioned compound No. 9, while they were 80 minutes and 40 minutes with the following comparative compound A and 120 minutes and 80 minutes with the following comparative compound B. Corrected knockdown rate(%)=[(non-knockdown rate in control section−non-knockdown rate in treated section)/non-knockdown rate in control section]×100

Data set [2] relates to Common Cutworm (Spodoptera litura). Description: Controlling effects against common cutworm, cabbage leaf dip. As to conditions: foliar, 120 h. An excerpt: Test on Controlling Effects Against Common Cutworm (Spodoptera litura)
A leaf segment of cabbage was dipped for about 10 seconds in an insecticidal solution prepared to bring the concentration of the compound of the present invention to 50 ppm or 3.1 ppm and dried in air. A wet filter paper was laid in a petri dish having a diameter of 9 cm, and the dried leaf segment of cabbage was placed thereon. Ten second-third instar larvae common cutworm were released therein and after putting a cover, left in a constant temperature chamber at 25° C. with lightening. Dead larvae were counted 5 days after the release, and the mortality was calculated by the following equation. Here, moribund insects were counted as dead insects. […] Mortality(%)=(number of dead insects/number of released insects)×100

In data set [3] the test system is Cat Flea (Ctenocephalides felis). The experiment in a line: Controlling effects against cat flea, dry film in glass tube. The conditions noted are these: 0.5 ml of 5.3 ppm acetone solution as dry film, adult fleas, 48 hours after exposure. The procedure:
Test on Controlling Effects Against Cat Flea (Ctenocephalides felis)
0.5 ml of an acetone solution of the compound of the present invention prepared to be 5.3 ppm was dropped in a glass tube having a flat bottom (inner diameter: 2.6 cm, bottom area: 5.3 cm^2, height 12 cm). The acetone was evaporated at room temperature to have a dry film containing the compound of the present invention formed on the bottom surface. Ten adults of cat flea (not-yet-blood-sucked adults within five days after adult emergence) were put therein and exposed to the compound of the present invention. The test was carried out continuously three times.
Dead cat flea were counted 48 hours after the exposure and the mortality was obtained in the same manner as in the above Test Example 1.

With `Cc1cc(Cl)cc(C(=O)NC(C)C2CC2)c1NC(=O)c1cc(C(F)(F)F)nn1-c1ncccc1Cl` (stereo not drawn) [compound No. 3, N-[4-chloro-2-methyl-6-[[α-methyl-(cyclopropylmethyl)amino]carbonyl]-phenyl]-3-(trifluoromethyl)-1-(3-chloro-2-pyridyl)-1H-pyrazol-5-carboxamide], the “median knockdown time (KT50 value)” value in data set [1] was 9 min and 8 min.

`Cc1cc(Cl)cc(C(=O)NC(C)C)c1NC(=O)c1cc(C(F)(F)F)nn1-c1ncccc1Cl` [comparative compound A, reference compound]: the “median knockdown time (KT50 value)” value in data set [1] was 80 min and 40 min.

Consider `Cc1cccc(C(=O)NCC2CC2)c1NC(=O)c1cc(C(F)(F)F)nn1-c1ncccc1Cl` [compound No. 1, N-[6-[[(cyclopropylmethyl)amino]carbonyl]-2-methylphenyl]-1-(3-chloro-2-pyridyl)-3-(trifluoromethyl)-1H-pyrazol-5-carboxamide], for which the mortality at 3.1 ppm in data set [2] is ≥ 90%.

As for `CC(NC(=O)c1cc(Cl)cc(Br)c1NC(=O)c1cc(Br)nn1-c1ncccc1Cl)C1CC1` (stereo not drawn) [compound No. 16, N-[2-bromo-4-chloro-6-[[α-methyl-(cyclopropylmethyl)amino]carbonyl]-phenyl]-3-bromo-1-(3-chloro-2-pyridyl)-1H-pyrazol-5-carboxamide], the mortality result in data set [3] was “at least 90%”.

Turning to `Cc1cc(Cl)cc(C(=O)NC(C)C)c1NC(=O)c1cc(Br)nn1-c1ncccc1Cl` [comparative compound B, reference compound], the “median knockdown time (KT50 value)” value in data set [1] is 120 min and 80 min.

On to `Cc1cc(Cl)cc(C(=O)NC(C)C2CC2)c1NC(=O)c1cc(Br)nn1-c1ncccc1Cl` (stereo not drawn) [compound No. 9, N-[4-chloro-2-methyl-6-[[α-methyl-(cyclopropylmethyl)amino]carbonyl]-phenyl]-3-bromo-1-(3-chloro-2-pyridyl)-1H-pyrazol-5-carboxamide], for which the “median knockdown time (KT50 value)” value in data set [1] was 7.5 min and 6 min.

For the origin of these results see US8470856B2, “Anthranilamide compounds, process for their production and pesticides containing them” (Ishihara Sangyo Kaisha, Ltd., priority 2004, dated 2013).
